Assays:
KM12 cells = test: Cell viability assay (CellTiter-Glo) in KM12 cells; format: cell-based; details: Homo sapiens, 72 h, KM12, colorectal carcinoma, 3 days
Description: (§1) MV4;11, RS4;11, Kasumi-1, HEL and other cells were treated with NVP-BSK805, TG101209 or selected degraders for 3 days at indicated concentrations following a 3-fold serial dilution.
(§2) HEL, RS4;11, MV4;11, Kasumi-1 and other cells were cultured at 37° C. with 5% CO2 in RPMI 1640 or DMEM Medium supplemented with 10% fetal bovine serum. Cells were authenticated using the short tandem repeat (STR) assays. Mycoplasma test results were negative.
(§3) Cells were seeded at a density of 5000 cells per well in 96-well assay plates and treated with test compounds following a 8-point or 12-point 3-fold serial dilution. Three days later, cell viability was determined using the CellTiter-Glo assay kit according to the manufacturer's instructions. The dose-response curves were determined and IC50 values were calculated using the GraphPad Prism software following a nonlinear regression (least squares fit) method.

MEG-01 cells = test: Cell viability assay (CellTiter-Glo) in MEG-01 cells; format: cell-based; details: Homo sapiens, 72 h, MEG-01, CML, 3 days
Description: as §1, §2, §3

Pfeiffer cells = test: Cell viability assay (CellTiter-Glo) in Pfeiffer cells; format: cell-based; details: Homo sapiens, 72 h, DLBCL, 3 days
Description: as §1, §2, §3

MOLT-4 cells = test: Cell viability assay (CellTiter-Glo) in MOLT-4 cells; format: cell-based; details: Homo sapiens, 72 h, MOLT-4, T-ALL, 3 days
Description: as §1, §2, §3

keratinocyte HACAT cells = test: Cell viability of non-cancerous keratinocyte HACAT cells; format: cell-based, human; details: 3 days, 3-fold serial dilution (FIG. 6)
Description: (§4) Immortalized human lung fibroblast IMR-90 and keratinocyte HACAT cells were treated with JA-189 or JA-213 for 3 days at indicated concentrations following a 3-fold serial dilution.
as §3

JAK2-V617F = target: T1, JAK2-V617F (Homo sapiens, UniProt O60674, V617F); test: Immunoblot of JAK2 protein level in HEL cells; format: cell-based; details: 24 hours; for JAK2 protein level: HEL cells, immunoblot (FIG. 1)
T1 construct: immunoblot of JAK1/2/3 proteins expressed in HEL cells; endogenous in cells; host or cells: HEL cells
T1 sequence (O60674 whole entry V617F): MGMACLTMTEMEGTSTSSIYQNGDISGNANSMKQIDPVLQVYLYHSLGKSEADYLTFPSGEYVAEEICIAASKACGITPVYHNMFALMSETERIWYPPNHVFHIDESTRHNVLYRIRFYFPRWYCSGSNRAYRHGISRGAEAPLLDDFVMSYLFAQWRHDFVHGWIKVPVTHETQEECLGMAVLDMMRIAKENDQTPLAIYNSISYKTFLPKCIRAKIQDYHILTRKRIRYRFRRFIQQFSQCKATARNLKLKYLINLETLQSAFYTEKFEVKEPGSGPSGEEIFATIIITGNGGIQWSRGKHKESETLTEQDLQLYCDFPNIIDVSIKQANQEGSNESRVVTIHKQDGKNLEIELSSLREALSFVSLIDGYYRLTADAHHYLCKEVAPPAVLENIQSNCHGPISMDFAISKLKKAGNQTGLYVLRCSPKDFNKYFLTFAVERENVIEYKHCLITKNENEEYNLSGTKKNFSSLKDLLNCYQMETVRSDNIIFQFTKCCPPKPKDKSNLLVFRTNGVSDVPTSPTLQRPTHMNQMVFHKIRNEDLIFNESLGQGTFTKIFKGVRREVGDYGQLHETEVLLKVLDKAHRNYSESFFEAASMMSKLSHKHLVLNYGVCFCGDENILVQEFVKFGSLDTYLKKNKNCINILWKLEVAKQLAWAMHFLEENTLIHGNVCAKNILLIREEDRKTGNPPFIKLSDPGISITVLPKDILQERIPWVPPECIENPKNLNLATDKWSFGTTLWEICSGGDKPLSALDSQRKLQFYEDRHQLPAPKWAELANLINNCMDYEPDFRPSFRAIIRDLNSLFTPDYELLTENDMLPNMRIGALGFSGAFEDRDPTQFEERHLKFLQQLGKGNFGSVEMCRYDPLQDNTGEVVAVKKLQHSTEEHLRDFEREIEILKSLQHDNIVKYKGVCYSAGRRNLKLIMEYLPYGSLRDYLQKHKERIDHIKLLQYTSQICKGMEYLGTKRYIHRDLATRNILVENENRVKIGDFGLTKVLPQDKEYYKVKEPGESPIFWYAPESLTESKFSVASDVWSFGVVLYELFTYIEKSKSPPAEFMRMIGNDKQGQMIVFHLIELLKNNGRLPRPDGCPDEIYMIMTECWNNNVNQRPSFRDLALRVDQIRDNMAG
Description: HEL cells harboring JAK2-V617F mutation were treated with compounds at indicated concentrations for 24 hours. […] The concentrations required to reduce JAK2-V617 by 50% (DC50) were below 60 nM for compound JA-213.
as §2
(§5) Rabbit anti-JAK1 antibody (3344S), anti-JAK2 antibody (3230S), anti-JAK3 antibody (8827S), anti-TYK2 antibody (14193S), anti-FLT3 antibody (3462S), anti-RET antibody (14556S), anti-phospho-STAT3 (Tyr705) antibody (9145S) and anti-phospho-STAT5 (Tyr694) antibody (4322S) were purchased from Cell Signaling Technology. Rabbit anti-GSPT1 antibody (ab126090) was purchased from Abcam. HRP-conjugated anti-α-tubulin antibody was produced in house. Media and other cell culture reagents were purchased from Thermo Fisher. The CellTiter-Glo Luminescent Assay kit was purchased from Promega.
(§6) Cultured cells were washed with cold PBS once and lysed in cold RIPA buffer supplemented with protease inhibitors and phosphatase inhibitors (Beyotime Biotechnology). The solutions were then incubated at 4° C. for 30 minutes with gentle agitation to fully lyse cells. Cell lysates were centrifuged at 13,000 rpm for 10 minutes at 4° C. and pellets were discarded. Total protein concentrations in the lysates were determined by BCA assays (Beyotime Biotechnology). Cell lysates were mixed with Laemmli loading buffer to 1× and heated at 99° C. for 5 min. Proteins were resolved on SDS-PAGE and visualized by chemiluminescence. Images were taken by a ChemiDoc MP Imaging system (Bio-Rad). Protein bands were quantitated using the accompanied software provided by Bio-Rad.

JAK1 = target: T2, JAK1 (Homo sapiens, UniProt P23458); test: Immunoblot of JAK1 protein level in RS4;11 cells; format: cell-based; details: 24 hours; for JAK1 protein level: immunoblot (FIG. 2)
T2 construct: immunoblot of JAK1/3 proteins expressed in RS4;11 cells; endogenous in cells; host or cells: RS4;11 cells
T2 sequence (P23458 whole entry): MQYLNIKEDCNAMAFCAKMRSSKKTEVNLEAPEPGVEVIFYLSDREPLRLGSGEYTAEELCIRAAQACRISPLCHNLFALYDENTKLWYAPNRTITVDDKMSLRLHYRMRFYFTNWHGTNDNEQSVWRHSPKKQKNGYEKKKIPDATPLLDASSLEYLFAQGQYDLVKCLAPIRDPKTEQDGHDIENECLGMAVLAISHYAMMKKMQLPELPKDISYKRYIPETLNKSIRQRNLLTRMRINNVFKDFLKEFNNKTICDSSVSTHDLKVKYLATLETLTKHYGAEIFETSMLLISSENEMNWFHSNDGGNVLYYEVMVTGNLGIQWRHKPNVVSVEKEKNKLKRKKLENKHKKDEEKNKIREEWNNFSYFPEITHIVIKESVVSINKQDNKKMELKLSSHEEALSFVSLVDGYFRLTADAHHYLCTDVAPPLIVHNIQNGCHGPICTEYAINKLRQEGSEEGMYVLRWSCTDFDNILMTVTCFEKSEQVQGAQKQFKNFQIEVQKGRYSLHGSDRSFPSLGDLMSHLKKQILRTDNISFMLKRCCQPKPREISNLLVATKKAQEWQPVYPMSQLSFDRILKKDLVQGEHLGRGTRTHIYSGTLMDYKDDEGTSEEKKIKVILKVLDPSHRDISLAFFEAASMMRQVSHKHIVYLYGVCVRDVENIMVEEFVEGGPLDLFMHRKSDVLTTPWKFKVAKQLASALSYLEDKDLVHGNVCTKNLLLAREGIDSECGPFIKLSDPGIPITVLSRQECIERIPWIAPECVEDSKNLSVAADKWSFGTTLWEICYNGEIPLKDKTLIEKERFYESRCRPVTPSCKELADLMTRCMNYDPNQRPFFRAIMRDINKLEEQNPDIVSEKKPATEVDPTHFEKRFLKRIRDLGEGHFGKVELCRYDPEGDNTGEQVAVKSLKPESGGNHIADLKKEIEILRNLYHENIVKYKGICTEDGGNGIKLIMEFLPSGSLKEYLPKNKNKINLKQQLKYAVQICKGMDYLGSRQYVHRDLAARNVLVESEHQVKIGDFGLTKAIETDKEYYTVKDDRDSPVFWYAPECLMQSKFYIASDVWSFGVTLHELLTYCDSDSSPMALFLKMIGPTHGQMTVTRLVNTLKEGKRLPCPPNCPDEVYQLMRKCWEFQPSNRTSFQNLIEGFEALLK
Description: RS4;11 cells were treated with compounds at indicated concentrations for 24 hours. […] The concentrations required to reduce JAK1 by 50% (DC50) were below 5 nM and 35 nM for compound JA-189 and JA213, respectively.
as §2, §5, §6

HEL cells = test: Cell viability assay (CellTiter-Glo) in HEL cells; format: cell-based; details: 3 days; for cell viability inhibition in combination with pomalidomide: pomalidomide at 10 μM (FIG. 4); for IC50: Homo sapiens, 72 h, erythroleukemia, cell viability
Description: as §1, §2, §3

[1] = test system: immortalized human lung fibroblast IMR-90 cells; test: Cell viability of non-cancerous lung fibroblast IMR-90 cells; format: cell-based; details: IMR-90, 3 days, 3-fold serial dilution (FIG. 6)
Description: as §4, §3

`O=C1CCC(N2C(=O)c3ccc(NCCCCCC(=O)N4CCC(n5cc(-c6cnc7cccc(-c8cc(F)c(CN9CCOCC9)c(F)c8)c7n6)cn5)CC4)cc3C2=O)C(=O)N1` (stereo not shown) [JA-189, 5-((6-(4-(4-(8-(3,5-difluoro-4-(morpholinomethyl)phenyl)quinoxalin-2-yl)-1H-pyrazol-1-yl)piperidin-1-yl)-6-oxohexyl)amino)-2-(2,6-dioxopiperidin-3-yl)isoindoline-1,3-dione] gave an IC50 (KM12 cells) of 2370 nM, an IC50 (MEG-01 cells) of 89.2 nM and an IC50 (Pfeiffer cells) of 320 nM. For the same compound, the IC50 (MOLT-4 cells) was 6.36 nM, the “sensitivity of non-cancerous cells (cell viability)” value (“sensitivity of non-cancerous cells” below) (keratinocyte HACAT cells) was “not sensitive” and the JAK2 protein level (JAK2-V617F) was “able to reduce JAK1, JAK2 and JAK3 protein levels”. For the same compound, the JAK1 protein level (JAK1) was “even better activity in reducing the JAK1 and JAK3 protein levels”, the DC50 (JAK1; immunoblot, read-out: concentration required to reduce JAK1 by 50% (DC50)) was < 5 nM and the “cell viability inhibition in combination with pomalidomide” value (HEL cells) was “greatly reduce the potencies of the degraders”. For the same compound, the IC50 (HEL cells) was 177 nM and the “sensitivity of non-cancerous cells” value [1] was “not sensitive”.
Work on `CS(=O)(=O)c1ccc(-c2cccc3nc(Nc4ccc(N5CCN(CC(=O)NCCCCCCCCNc6ccc7c(c6)C(=O)N(C6CCC(=O)NC6=O)C7=O)CC5)cc4)nn23)cc1` (stereo not shown) [JA-213] yielded an IC50 (KM12 cells) of 679 nM, an IC50 (MEG-01 cells) of 74 nM and an IC50 (Pfeiffer cells) of 266 nM. The IC50 (MOLT-4 cells) was 16.5 nM, the “sensitivity of non-cancerous cells” value (keratinocyte HACAT cells) was “not sensitive” and the DC50 (JAK2-V617F; HEL cells harboring JAK2-V617F, immunoblot, read-out: concentration required to reduce JAK2-V617 by 50% (DC50)) was < 60 nM. For the same compound, the JAK2 protein level (JAK2-V617F) was “able to reduce JAK1, JAK2 and JAK3 protein levels”, the JAK1 protein level (JAK1) was “even better activity in reducing the JAK1 and JAK3 protein levels” and the “cell viability inhibition in combination with pomalidomide” value (HEL cells) was “greatly reduce the potencies of the degraders”. For the same compound, the IC50 (HEL cells) was 82.1 nM and the “sensitivity of non-cancerous cells” value [1] was “not sensitive”.

Source: US20230093099A1, “COMPOUNDS AND METHODS OF TREATING CANCERS” (CULLGEN (SHANGHAI), INC., priority 2019, published 2023)
